From patent publication US9145414B2, “1,2,4-triazine-6-carboxamide derivative” (TAIHO PHARMACEUTICAL CO., LTD., priority 2011, dated 2015)
Where two headings read alike, the source gives them in different places.

Columns and labels:
[1] = target: human Syk protein (Homo sapiens (Human), UniProt P43405); experiment: Syk kinase inhibition test; format: biochemical; details: read-out: SYK inhibitory activity IC50
Protocol: Finally, phosphorylated peptides and non-phosphorylated peptides were separated therebetween using LabChip™ 3000 system (Caliper Life Sciences, Inc., excitation wavelength: 488 nm, detection wavelength: 530 nm). Their respective amounts were measured, and the rate of phosphorylation reaction was then determined from the ratio between the amounts. The concentration at which the compound can inhibit 50% phosphorylation reaction is defined as an IC50 value (μM).
Also, known 1,2,4-triazine-6-carboxamide derivatives A, B, and C (WO2000/075113 (A: compound No. 121 and B: compound No. 154) and WO2000/076980 (C: compound No. 39)) were synthesized as control compounds. Their IC50 values (μM) were calculated in the same way as above and then compared with that of the compound of the present invention.

[2] = target: recombinant human KDR protein (Homo sapiens (Human), UniProt P35968); experiment: KDR kinase activity inhibitory effect; format: biochemical; details: for KDR inhibitory activity: Selectivity for Syk: KDR IC50 relative to Syk IC50; for IC50: Table 97
Protocol: The purified recombinant human KDR protein used in the test is a house purified product. […] The mixture was incubated at 30° C. for 180 minutes to perform kinase reaction. […] Their respective amounts were measured, and the rate of phosphorylation reaction was then determined from the ratio between the amounts.

[3] = system: SU-DHL-6 cells (diffuse large-cell lymphoma cell line); experiment: Cell growth inhibition test; format: cell-based; details: Homo sapiens, 72 h; SU-DHL-6 cells, 3 days culture, Table 96; read-out: Cell growth inhibition IC50
Protocol: The compound of the present invention was serially diluted with dimethyl sulfoxide and then added to an RPMI1640 medium containing 10% FBS. Each resulting solution was added at a concentration of 100 μl/well to the preceding SU-DHL-6 cell culture plate (final concentration of the compound: 10, 3, 1, 0.3, 0.1, 0.03, 0.01, and 0.003 μM). The cells were cultured at 37° C. for 3 days in an incubator containing 5% CO2. The cells thus cultured were left at room temperature for 30 minutes and then centrifuged at 1500 rpm for 3 minutes using a centrifuge (Hitachi Koki Co., Ltd., Himac CF7D2). A 100 μl aliquot of the supernatant was removed from each well to allow 100 μl of the cell culture solution to remain therein. This 100 μl of the remaining cell culture solution was supplemented with an equal amount of CellTiter-Glo Luminescent Cell Viability Assay (Promega KK, Cat#: G7573), and the mixture was then shaken for 1 minute using a plate mixer. The reaction solution was left in the dark for 10 minutes. Then, luminescence intensity derived from live cells of each well was measured using a microplate reader (PerkinElmer Inc., ARVOsx). […] Likewise, the IC50 values (μM) of the control compounds were also calculated and then compared with that of the compound of the present invention. Rate of cell growth inhibition(%)=(C−T)/C×100 T: luminescence intensity (count per second) of a well supplemented with the test compound C: luminescence intensity (count per second) of a well non-supplemented with the test compound

[4] = target: recombinant human Aurora B protein (Homo sapiens (Human), UniProt Q96GD4); experiment: Aurora B kinase activity inhibitory effect; format: biochemical; details: Table 97; read-out: AuroraB inhibitory activity IC50
Protocol: (§1) The reaction solution was left standing in the dark at room temperature for 120 minutes. Then, fluorescence polarization values obtained by measurement using PHERAstar (BMG LABTECH JAPAN Ltd., excitation wavelength: 485 nm, detection wavelength: 520 nm) were used to determine the rate of phosphorylation reaction.

[5] = system: recombinant human Aurora B protein; experiment: Aurora B kinase activity inhibitory effect; format: biochemical; details: Aurora B IC50 relative to Syk IC50
Protocol: as §1

Sequence of recombinant human Aurora B protein (Homo sapiens (Human), UniProt Q96GD4) (Q96GD4 whole entry): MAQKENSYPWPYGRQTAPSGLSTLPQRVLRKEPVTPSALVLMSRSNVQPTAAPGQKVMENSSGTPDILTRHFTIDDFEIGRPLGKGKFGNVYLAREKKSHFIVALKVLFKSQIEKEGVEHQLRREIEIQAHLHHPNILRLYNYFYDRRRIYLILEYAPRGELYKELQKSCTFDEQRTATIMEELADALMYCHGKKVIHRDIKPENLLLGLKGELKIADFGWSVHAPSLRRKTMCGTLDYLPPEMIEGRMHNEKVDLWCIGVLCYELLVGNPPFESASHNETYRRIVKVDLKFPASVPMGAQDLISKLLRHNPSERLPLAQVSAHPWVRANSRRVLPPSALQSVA
Sequence of recombinant human KDR protein (P35968 20-1356): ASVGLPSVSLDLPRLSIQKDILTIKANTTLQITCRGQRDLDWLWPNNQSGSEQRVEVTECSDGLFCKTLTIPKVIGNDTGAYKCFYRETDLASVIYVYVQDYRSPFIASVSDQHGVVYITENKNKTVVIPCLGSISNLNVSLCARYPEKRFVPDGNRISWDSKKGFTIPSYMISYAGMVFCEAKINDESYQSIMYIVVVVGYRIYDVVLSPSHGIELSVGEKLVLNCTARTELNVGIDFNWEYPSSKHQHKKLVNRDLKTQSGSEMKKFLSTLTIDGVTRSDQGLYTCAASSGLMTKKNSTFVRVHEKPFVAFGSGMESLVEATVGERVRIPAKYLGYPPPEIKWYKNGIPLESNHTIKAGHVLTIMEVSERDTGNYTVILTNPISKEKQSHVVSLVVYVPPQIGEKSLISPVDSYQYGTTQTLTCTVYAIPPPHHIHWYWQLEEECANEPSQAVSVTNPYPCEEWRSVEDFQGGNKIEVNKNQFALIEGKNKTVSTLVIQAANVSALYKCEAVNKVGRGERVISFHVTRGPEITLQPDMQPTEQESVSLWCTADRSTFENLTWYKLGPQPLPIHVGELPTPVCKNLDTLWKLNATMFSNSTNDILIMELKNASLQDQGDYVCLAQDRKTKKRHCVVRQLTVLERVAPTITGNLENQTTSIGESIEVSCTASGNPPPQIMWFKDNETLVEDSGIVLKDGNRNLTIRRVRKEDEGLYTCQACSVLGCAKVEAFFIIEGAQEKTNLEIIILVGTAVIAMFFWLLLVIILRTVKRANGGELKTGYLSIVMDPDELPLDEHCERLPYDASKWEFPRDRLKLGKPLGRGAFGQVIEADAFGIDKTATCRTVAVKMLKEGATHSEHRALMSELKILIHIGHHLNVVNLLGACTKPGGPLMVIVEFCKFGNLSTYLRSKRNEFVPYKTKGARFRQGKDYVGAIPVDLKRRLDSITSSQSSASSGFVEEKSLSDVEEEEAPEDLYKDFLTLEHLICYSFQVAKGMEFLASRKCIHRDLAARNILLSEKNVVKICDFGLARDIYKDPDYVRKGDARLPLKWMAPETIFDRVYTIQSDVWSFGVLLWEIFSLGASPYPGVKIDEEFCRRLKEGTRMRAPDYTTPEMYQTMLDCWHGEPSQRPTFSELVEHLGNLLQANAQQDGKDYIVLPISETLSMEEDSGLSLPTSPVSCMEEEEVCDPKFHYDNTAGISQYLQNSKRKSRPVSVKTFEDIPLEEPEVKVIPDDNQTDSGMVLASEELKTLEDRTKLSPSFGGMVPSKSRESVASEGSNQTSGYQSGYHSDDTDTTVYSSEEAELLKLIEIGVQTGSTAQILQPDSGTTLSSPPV

| IC50 ([1]; Table 95) | IC50 ([1]; Table 97) | KDR inhibitory activity: Selectivity for Syk [2] | IC50 [2] | IC50 [3] | IC50 [4] | AuroraB inhibitory activity: Selectivity for Syk [5] | SMILES |
| --- | --- | --- | --- | --- | --- | --- | --- |
| 0.53 nM | 0.53 nM | (>20000 times) | > 10000 nM | 152 nM | > 10000 nM | (>20000 times) | NC(=O)c1nnc(N[C@@H]2CCCC[C@@H]2N)nc1Nc1ccc2cn(C(F)F)nc2c1 [Example 24, 3-((1R,2S)-2-aminocyclohexylamino)-5-(2-(difluoromethyl)-2H-indazol-6-ylamino)-1,2,4-triazine-6-carboxamide] |
| 0.28 nM | 0.28 nM | (>7000 times) | > 2000 nM | 27 nM | 420 nM | (1500 times) | NC(=O)c1nnc(N[C@@H]2CCCC[C@@H]2N)nc1Nc1cc2ccccc2s1 [Example 161] |
| 0.38 nM | 0.38 nM | (4400 times) | 1400 nM | 165 nM | 1300 nM | (4100 times) | NC(=O)c1nnc(N[C@@H]2CCOC[C@@H]2N)nc1Nc1cccc2c1ccn2C1CC1 [Example 160] |
